The results in this text go back to patent US20130096105A1, “ArylSulfonamide Based Matrix Metalloprotease Inhibitors” (NOVARTIS AG, priority 2008, published 2013).

A word on the IC50: it is the concentration needed to halve the response being measured.

Experiment [1] addresses T1, Gelatinase (MMP-2) (Homo sapiens, UniProt P08253).
T1 sequence (P08253 110-660): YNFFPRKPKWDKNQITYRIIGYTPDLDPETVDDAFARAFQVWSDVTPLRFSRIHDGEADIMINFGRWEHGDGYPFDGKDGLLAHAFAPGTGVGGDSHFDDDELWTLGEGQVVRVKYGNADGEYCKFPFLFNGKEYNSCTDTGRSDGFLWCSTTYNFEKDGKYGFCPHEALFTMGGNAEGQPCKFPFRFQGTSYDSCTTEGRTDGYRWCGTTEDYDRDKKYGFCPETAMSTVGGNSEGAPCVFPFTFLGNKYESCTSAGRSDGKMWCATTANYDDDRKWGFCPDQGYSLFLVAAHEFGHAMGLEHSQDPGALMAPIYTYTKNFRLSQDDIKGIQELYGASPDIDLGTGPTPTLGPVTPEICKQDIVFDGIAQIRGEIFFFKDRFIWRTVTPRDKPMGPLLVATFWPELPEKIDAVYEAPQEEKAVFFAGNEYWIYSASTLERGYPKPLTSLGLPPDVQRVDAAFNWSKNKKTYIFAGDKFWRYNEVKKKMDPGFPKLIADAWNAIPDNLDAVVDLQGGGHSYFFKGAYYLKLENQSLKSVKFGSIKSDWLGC
Put plainly: Gelatinase (MMP-2) inhibitory activity, fluorogenic peptide substrate cleavage. Type of experiment: biochemical. Conditions: read-out: MMP02 IC50. The method, then:
(§1) Gelatinase (MMP-2) inhibitory activities can be determined as follows: Stock solutions of substrate (MCA-Lys-Pro-Leu-Gly-Leu-Dpa-Ala-Arg-NH2) are prepared in DMSO at a concentration of 1.4 mM. Stock solutions of inhibitors (0.03 μM-3 mM) are also prepared in DMSO. The inhibitors are diluted into the assay solutions, and the controls use an equal volume of DMSO so that the final DMSO concentration from the inhibitor and substrate dilutions in all assays is 1.0%. Assays are performed in an assay buffer (100 mM sodium chloride, 10 μM ZnCl. Sub 2, 10 mM CaCl2, 100 mM Tris-Cl pH7.5, 0.05% Brij-35), containing 1.0% DMSO from the substrate and inhibitor additions. The substrate concentration used in the assays is 5 μM. The assays are carried out at 20-25° C. The fluorescence changes, as a result of substrate cleavage, are monitored using an excitation wavelength of 325 nm and an emission wavelength of 405 nm. The reaction mixtures are added in duplicate into appropriate wells of a 384-well assay plate. The reaction mixtures are preincubated with the inhibitors for 60 minutes The reactions are started by the addition of MMP substrate, and the fluorescence intensity changes are measured after 60 minutes The apparent enzyme activity in the presence of an inhibitor is then compared with that in the absence of any inhibitor to determine the inhibition effect of the inhibitor. These techniques are within the knowledge of one skilled in the art. The inhibition results are expressed as the inhibitor concentrations required to effect 50% inhibition (IC50) of the enzyme activity, as compared with the control (non-inhibited) reactions.

Experiment [2] has as its target Collagenase-3 (MMP-13) (Homo sapiens, UniProt P45452). The experiment in a line: Collagenase-3 (MMP-13) inhibitory activity, fluorogenic peptide substrate cleavage. The experiment is classed as biochemical. Conditions: read-out: MMP13 IC50. The method, then: as §1
Collagenase-3 (MMP-13) inhibitory activity is determined as described above. Recombinant pro-collagenase-3 is activated with 1 mM APMA, and stored in the assay buffer after extensive dialysis in the assay buffer.

For `CC(C)COc1ccc(C(=O)c2ccc(Cl)c(S(N)(=O)=O)c2)cc1` [Example 17, 2-Chloro-5-(4-isobutoxy-benzoyl)-benzenesulfonamide], the figures for the IC50 in experiment [1] and in experiment [2] were 2.3 µM and 3.71 µM, respectively.

Take `Cc1nc2ccc(C(=O)c3ccc(Cl)c(S(N)(=O)=O)c3)cc2[nH]1` [Example 98, 2-Chloro-5-(2-methyl-3H-benzoimidazole-5-carbonyl)-benzenesulfonamide]: the half-maximal inhibitory concentration (IC50) in experiment [1] is 2.25 µM; in experiment [2] it was 8.31 µM.

Regarding `NS(=O)(=O)c1cc(C(=O)c2ccc(N3CCC3=O)cc2)ccc1Cl` [Example 89, 2-Chloro-5-[4-(2-oxo-azetidin-1-yl)-benzoyl]-benzenesulfonamide], the IC50 worked out at 2.06 µM in experiment [1] and 3.34 µM in experiment [2].

Take `Cc1noc(C)c1-c1c[nH]c2cc(C(=O)c3ccc(Cl)c(S(N)(=O)=O)c3)ccc12` [Example 133, 2-Chloro-5-[3-(3,5-dimethyl-isoxazol-4-yl)-1H-indole-6-carbonyl]-benzenesulfonamide]: the IC50 in experiment [1] was found to be 23 µM; in experiment [2], 0.3 µM.

Consider `CC(=O)c1cccc(-c2c[nH]c3cc(C(=O)c4ccc(Cl)c(S(N)(=O)=O)c4)ccc23)c1` [Example 121, 5-[3-(3-Acetyl-phenyl)-1H-indole-6-carbonyl]-2-chloro-benzenesulfonamide], for which the values for the IC50 in experiment [1] and in experiment [2] were 3.9 µM and 0.59 µM, respectively.

Take `NS(=O)(=O)c1cc(C(=O)c2ccc3cc[nH]c3c2)ccc1F` [Example 144, 2-Fluoro-5-(1H-indole-6-carbonyl)-benzenesulfonamide]: the IC50 in experiment [1] amounted to 0.39 µM; in experiment [2] it was 0.3 µM.

Turning to “2-Chloro-5-(4-thiophen-2-yl-benzoyl)-benzenesulfonamide [Example 39]”, the values for the IC50 in experiment [1] and in experiment [2] were 13.3 µM and 9.06 µM, respectively.

Take `Cc1ccc(C(=O)c2ccc(Cl)c(S(N)(=O)=O)c2)c(Br)c1` [Example 45, 5-(2-Bromo-4-methyl-benzoyl)-2-chloro-benzenesulfonamide]: the results for the IC50 in experiment [1] and in experiment [2] were 0.053 µM and 0.08 µM, respectively.

For `NS(=O)(=O)c1cc(C(=O)c2c[nH]c3ccccc23)ccc1Cl` [Example 113, 2-Chloro-5-(1H-indole-3-carbonyl)-benzenesulfonamide], the IC50 in experiment [1] was 8.94 µM; in experiment [2], 3.08 µM.

Regarding `NS(=O)(=O)c1cc(C(=O)c2ccc(-c3ccc(Cl)cc3)cc2)ccc1Cl` [Example 66, 2-Chloro-5-(4′-chloro-biphenyl-4-carbonyl)-benzenesulfonamide], the half-maximal inhibitory concentration (IC50) in experiment [1] was determined as 0.72 µM; in experiment [2], 0.63 µM.

Take `NS(=O)(=O)c1cc(C(=O)c2ccc(C3CCCC3)cc2)ccc1Cl` [Example 28, 2-Chloro-5-(4-cyclopentyl-benzoyl)-benzenesulfonamide]: the results for the IC50 in experiment [1] and in experiment [2] were 4.26 µM and 4.49 µM, respectively.

`Cc1n[nH]c2cc(C(=O)c3ccc(Cl)c(S(N)(=O)=O)c3)ccc12` [Example 100, 2-Chloro-5-(3-methyl-1H-indazole-6-carbonyl)benzenesulfonamide]: the IC50 came out at 0.26 µM in experiment [1] and 0.25 µM in experiment [2].

On to `C[Si](C)(C)C#Cc1ccc(C(=O)c2ccc(Cl)c(S(N)(=O)=O)c2)cc1` [Example 30, 2-Chloro-5-(4-trimethyl-silanylethynyl-benzoyl)-benzenesulfonamide], for which the IC50 in experiment [1] amounted to 1.23 µM; in experiment [2], 1.69 µM.

As to `COc1ccc(C(=O)c2ccc([N+](=O)[O-])c(S(N)(=O)=O)c2)cc1` [Example 5, 5-(4-Methoxy-benzoyl)-2-nitro-benzenesulfonamide], the IC50 came out at 1.06 µM in experiment [1] and 1.39 µM in experiment [2].

As for `NS(=O)(=O)c1cc(C(=O)c2ccc(F)cc2)ccc1Cl` [Example 51, 2-Chloro-5-(4-fluoro-benzoyl)-benzenesulfonamide], the IC50 worked out at 14.6 µM in experiment [1] and 18.7 µM in experiment [2].

Regarding `COc1ccc(C(=O)c2ccc(S(C)(=O)=O)c(S(N)(=O)=O)c2)cc1` [Example 9, 2-Methanesulfonyl-5-(4-methoxy-benzoyl)-benzenesulfonamide], the results for the IC50 in experiment [1] and in experiment [2] were 2.93 µM and 11.3 µM, respectively.

As to `Cc1cccc(-c2ccc(C(=O)c3ccc(Cl)c(S(N)(=O)=O)c3)cc2)c1` [Example 77, 2-Chloro-5-(3′-methyl-biphenyl-4-carbonyl)-benzenesulfonamide], the IC50 stood at 29.1 µM in experiment [1] and 23.1 µM in experiment [2].

As to `Cc1cccc(C(=O)c2ccc(Cl)c(S(N)(=O)=O)c2)c1` [Example 24, 2-Chloro-5-(3-methyl-benzoyl)-benzenesulfonamide], the figures for the IC50 in experiment [1] and in experiment [2] were 9.16 µM and 2.1 µM, respectively.

For `CCc1n[nH]c2cc(C(=O)c3ccc(Cl)c(S(N)(=O)=O)c3)ccc12` [Example 99, 2-Chloro-5-(3-ethyl-1H-indazole-6-carbonyl)-benzenesulfonamide], the IC50 in experiment [1] was determined as 0.27 µM; in experiment [2], 0.25 µM.

Consider `NS(=O)(=O)c1cc(C(=O)c2ccc(-c3ccc(F)cc3)cc2)ccc1Cl` [Example 65, 2-Chloro-5-(4′-fluoro-biphenyl-4-carbonyl)-benzenesulfonamide], for which the IC50 in experiment [1] was found to be 1.18 µM; in experiment [2] it was 1.61 µM.

Consider `COc1ccc(-c2c[nH]c3cc(C(=O)c4ccc(Cl)c(S(N)(=O)=O)c4)ccc23)cc1` [Example 119, 2-Chloro-5-[3-(4-methoxy-phenyl)-1H-indole-6-carbonyl]-benzenesulfonamide], for which the IC50 was determined as 24 µM in experiment [1] and 6.04 µM in experiment [2].

With `NS(=O)(=O)c1cc(C(=O)c2ccc(-c3ccccc3F)cc2)ccc1Cl` [Example 64, 2-Chloro-5-(2′-fluoro-biphenyl-4-carbonyl)-benzenesulfonamide], the IC50 is 4.05 µM in experiment [1] and 7.55 µM in experiment [2].

`NS(=O)(=O)c1cc(C(=O)c2ccc(OCCCc3ccccc3)cc2)ccc1Cl` [Example 19, 2-Chloro-5-[4-(3-phenyl-propoxy)-benzoyl]-benzenesulfonamide]: the figures for the IC50 in experiment [1] and in experiment [2] were 1.58 µM and 1.22 µM, respectively.

For `Cc1cc(-c2c[nH]c3cc(C(=O)c4ccc(C)c(S(N)(=O)=O)c4)ccc23)ccn1` [Example 147, 2-Methyl-5-[3-(2-methyl-pyridin-4-yl)-1H-indole-6-carbonyl]-benzenesulfonamide], the results for the IC50 in experiment [1] and in experiment [2] were 2.4 µM and 0.02 µM, respectively.

For `NS(=O)(=O)c1cc(C(=O)c2cccs2)ccc1Cl` [Example 96, 2-Chloro-5-(thiophene-2-carbonyl)-benzenesulfonamide], the figures for the IC50 in experiment [1] and in experiment [2] were 10 µM and 14.7 µM, respectively.

Turning to `CCN1C(=O)CCC2=C1Cc1cc(C(=O)c3ccc(Cl)c(S(N)(=O)=O)c3)ccc12` [Example 108, 2-Chloro-5-(1-ethyl-2-oxo-2,3,4,9-tetrahydro-1H-indeno[2,1-b]pyridine-7-carbonyl)-benzenesulfonamide], the results for the concentration for half-maximal inhibition (IC50) in experiment [1] and in experiment [2] were 2.9 µM and 4.11 µM, respectively.

In the case of `NS(=O)(=O)c1cc(C(=O)c2ccc(-n3cccc3)cc2)ccc1Cl` [Example 82, 2-Chloro-5-(4-pyrrol-1-yl-benzoyl)-benzenesulfonamide], the values for the IC50 in experiment [1] and in experiment [2] were 1.15 µM and 0.86 µM, respectively.

For `NS(=O)(=O)c1cccc(C(=O)c2ccc3cc[nH]c3c2)c1` [Example 146, 3-(1H-Indole-6-carbonyl)-benzenesulfonamide], the values for the IC50 in experiment [1] and in experiment [2] were 0.24 µM and 0.2 µM, respectively.

For the compound `NS(=O)(=O)c1cc(C(=O)c2ccc3c(CCC4CCCC4)n[nH]c3c2)ccc1Cl` [Example 112, 2-Chloro-5-[3-(2-cyclopentyl-ethyl)-1H-indazole-6-carbonyl]-benzenesulfonamide], the half-maximal inhibitory concentration (IC50) in experiment [2] is 0.129 µM.

For the compound `CCc1nn(Cc2ccccc2)c2cc(C(=O)c3ccc(Cl)c(S(N)(=O)=O)c3)ccc12` [Example 111, 5-(1-Benzyl-3-ethyl-1H-indazole-6-carbonyl)-2-chloro-benzenesulfonamide], the IC50 in experiment [1] was over 30 µM.

Take `NS(=O)(=O)c1cc(C(=O)c2ccc3c(-c4ccsc4)c[nH]c3c2)ccc1Cl` [Example 127, 2-Chloro-5-(3-thiophen-3-yl-1H-indole-6-carbonyl)-benzenesulfonamide]: the IC50 in experiment [2] was found to be 1.6 µM.
